Results: the supplement of paper PMC10307832

Assays:
Test in all cases: relative viability (nuclei count vs DMSO), 5 days (fraction); higher = more cells survive
[1] = compound: C1=CC2=C(C=C(C(=C2N=C1)O)N=NC3=CC4=C(C=C3)C=C(C=C4)S(=O)(=O)O)S(=O)(=O)O + CC(C)C[C@H](NC(=O)[C@H](Cc1ccccc1)NC(=O)c1cnccn1)B(O)O [Bortezomib] (partner 0.002 µM)
Procedure, shortened: (§1)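 Lung cancer cell lines were pin-tool dosed in 1536-well plates on the day after seeding, with either a lone drug or a fixed anchor-drug dose plus five library-drug doses (not always all listed) in √10 steps. Nuclei were counted on 4× images after 5 days. Relative viability is the ratio of treated-well to vehicle-well nuclei counts, with each value a median of duplicate plates.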

AT-7519 + Palbociclib = compound: O=C(NC1CCNCC1)c1n[nH]cc1NC(=O)c1c(Cl)cccc1Cl [AT-7519] + CC(=O)c1c(C)c2cnc(Nc3ccc(N4CCNCC4)cn3)nc2n(C2CCCC2)c1=O [Palbociclib] (partner 0.5 µM)
Procedure, shortened: as §1

[2] = compound: C1=CC2=C(C=C(C(=C2N=C1)O)N=NC3=CC4=C(C=C3)C=C(C=C4)S(=O)(=O)O)S(=O)(=O)O + C[C@]1(O)C[C@@H](c2nc(-c3ccc4ccc(-c5ccccc5)nc4c3)c3c(N)nccn32)C1 [Linsitinib] (partner 1 µM)
Procedure, shortened: as §1

AT-7519 + Dasatinib = compound: O=C(NC1CCNCC1)c1n[nH]cc1NC(=O)c1c(Cl)cccc1Cl [AT-7519] + Cc1nc(Nc2ncc(C(=O)Nc3c(C)cccc3Cl)s2)cc(N2CCN(CCO)CC2)n1 [Dasatinib] (partner 0.075 µM)
Procedure, shortened: as §1

Cell Line | relative viability ([1]; first compound 0.08 µM) | relative viability ([1]; first compound 0.253 µM) | relative viability ([1]; first compound 0.8 µM) | relative viability ([1]; first compound 2.53 µM) | relative viability ([1]; first compound 8 µM) | relative viability (AT-7519 + Palbociclib; first compound 0.01 µM) | relative viability (AT-7519 + Palbociclib; first compound 0.03162 µM) | relative viability (AT-7519 + Palbociclib; first compound 0.3162 µM) | relative viability (AT-7519 + Palbociclib; first compound 1 µM) | relative viability ([2]; first compound 0.08 µM) | relative viability ([2]; first compound 0.253 µM) | relative viability ([2]; first compound 0.8 µM) | relative viability ([2]; first compound 2.53 µM) | relative viability ([2]; first compound 8 µM) | relative viability (AT-7519 + Dasatinib; first compound 0.01 µM) | relative viability (AT-7519 + Dasatinib; first compound 0.03162 µM) | relative viability (AT-7519 + Dasatinib; first compound 0.3162 µM) | relative viability (AT-7519 + Dasatinib; first compound 1 µM)
LXF-289 | 0.95 | 0.96 | 0.986 | 0.986 | 0.945 | 0.597 | 0.656 | 0.527 | 0.577 | 1.05 | 0.977 | 0.957 | 1.02 | 0.917 | 0.219 | 0.232 | 0.222 | 0.235
NCI-H23 | 1.06 | 0.82 | 1.08 | 1.06 | 0.897 | 0.594 | 0.508 | 0.482 | 0.292 | 0.625 | 0.446 | 0.63 | 0.722 | 0.578 | 0.681 | 0.715 | 0.811 | 0.438
NCI-H322M | 1.26 | 1.11 | 1.22 | 1.32 | 1.28 | 0.501 | 0.486 | 0.419 | 0.473 | 0.905 | 0.925 | 0.845 | 0.916 | 0.99 | 0.257 | 0.257 | 0.226 | 0.275
NCI-H441 | 0.576 | 0.385 | – | 0.484 | 0.718 | 0.202 | 0.195 | 0.141 | 0.163 | 0.51 | 0.527 | 0.458 | 0.551 | 0.354 | 0.574 | 0.654 | 0.421 | 0.324
NCI-H460 | 1.39 | 1.04 | 0.99 | 1.19 | 1.09 | 0.137 | 0.142 | 0.0995 | 0.019 | 1.08 | 0.809 | 0.757 | 0.889 | 0.665 | 0.545 | 0.558 | 0.438 | 0.243
NCI-H520 | 0.777 | 0.598 | 0.619 | 0.551 | 0.459 | 0.226 | 0.197 | 0.209 | 0.194 | 1.1 | 1.12 | 1.07 | 0.968 | 1.01 | 0.244 | 0.241 | 0.174 | 0.166
NCI-H647 | 1.2 | 1.08 | 0.97 | 0.953 | 1.19 | 0.442 | 0.369 | 0.413 | 0.19 | 1.18 | 1.16 | 1.25 | 1.09 | 1.03 | 0.184 | 0.23 | 0.195 | 0.131
NCI-H650 | 0.782 | 0.748 | 0.94 | 0.758 | 0.614 | 0.329 | 0.335 | 0.296 | 0.452 | 0.652 | 0.755 | 0.884 | 0.769 | 0.576 | 0.437 | 0.423 | 0.465 | 0.488
NCI-H661 | 0.838 | 0.838 | 0.769 | 0.829 | 0.809 | 0.382 | 0.432 | 0.4 | 0.256 | 0.74 | 0.57 | 0.489 | 0.498 | 0.512 | 0.732 | 0.849 | 0.71 | 0.392
NCI-H727 | 0.917 | 0.945 | 0.854 | 0.853 | 0.816 | 0.621 | 0.698 | 0.658 | 0.427 | 0.223 | 0.287 | 0.371 | 0.32 | 0.269 | 0.392 | 0.401 | 0.257 | 0.135
NCI-H838 | 0.753 | 0.909 | 0.674 | 0.633 | 0.764 | 0.233 | 0.21 | 0.194 | 0.1 | 1.17 | 0.996 | 0.979 | 0.975 | 1.02 | 0.298 | 0.285 | 0.259 | 0.249
NCI-H1355 | 1.22 | 1.22 | 1.15 | 1.23 | 1.29 | 0.348 | 0.389 | 0.359 | 0.589 | 0.951 | 0.79 | 0.839 | 0.863 | 0.817 | 0.747 | 0.633 | 0.602 | 0.784
NCI-H1437 | 0.578 | 0.509 | 0.483 | 0.414 | 0.4 | 0.282 | 0.319 | 0.295 | 0.251 | 1.14 | 1.06 | 0.99 | 1.01 | 1.03 | 0.444 | 0.424 | 0.377 | 0.486
NCI-H1651 | 0.942 | 0.903 | 0.894 | 0.963 | 0.755 | 0.517 | 0.504 | 0.547 | 0.534 | 1.01 | 0.966 | 1.06 | 0.922 | 0.925 | 0.396 | 0.304 | 0.406 | 0.292
NCI-H1666 | 0.874 | 0.658 | 0.799 | 0.859 | 0.658 | 0.642 | 0.658 | 0.674 | 0.655 | 0.876 | 0.831 | 0.74 | 0.84 | 0.673 | 0.744 | 0.75 | 0.75 | 0.593
NCI-H1734 | 1.07 | 0.885 | 0.863 | 1.09 | 0.978 | 0.288 | 0.319 | 0.353 | 0.167 | 0.909 | 0.877 | 0.816 | 0.884 | 0.897 | 0.445 | 0.421 | 0.391 | 0.31
NCI-H1755 | 1.08 | 0.962 | 0.934 | 0.95 | 0.958 | 0.477 | 0.478 | 0.435 | 0.458 | 1.08 | 0.969 | 0.954 | 1.05 | 0.991 | 0.465 | 0.404 | 0.465 | 0.409
NCI-H1792 | 1.09 | 0.931 | 0.886 | 0.976 | 0.908 | – | – | 0.692 | 0.837 | 0.667 | 0.48 | 0.619 | 0.592 | 0.565 | – | – | 0.845 | 0.654
